Where two headings read alike, the source gives them in different places. One block for each compound: values may come before it.
Assays:
[1] = Metabolite profiling in urine by LC-QTOF/MS after oral administration of A. paniculata extract; assay type: in vivo; settings: tentative metabolite in human urine (pooled 0–4 and 4–8 h) after single oral A. paniculata extract
Experimental: For qualitative determination of untargeted compounds, liquid chromatography-quadrupole time-of-flight mass spectrometry (LC-QTOF/MS) was performed on an Agilent 6540 QTOF/MS (Agilent Technologies, USA) equipped with an Agilent 1260 infinity liquid chromatography system. The stationary phase of the chromatographic separation was performed on a 150 mm × 4.6 mm, 5.0 µm Phenomenex Luna C18 column (Phenomenex, USA) using a mobile phase consisting of 0.1% formic acid in water pH 2.5–2.7 (A) and 100% acetonitrile (B) at a constant flow rate of 0.5 mL/min with a controlled oven temperature at 35 °C, (and 10 µL) of injection volume. The elution gradient was started with 30%B, and was increased to 90%B within 20 min, then maintained at 95%B during 25–30 min followed by a post-run for 5 min.
Mass spectrometric analysis was performed using an ESI negative and positive modes with varying collision energies (10, 20, and 40 V) over a mass range of m/z 100–1200 Da. The MS conditions were as follows: capillary voltage = 3500 V; flow rate of drying gas (N2) = 10.0 L/min, 350 °C; nebulizer pressure = 30 psi, fragmentation voltage = 250 V for negative mode and 100 V for positive mode. All acquisition data were analyzed using MassHunter Software B.07.01 and MassHunter Qualitative Analysis Software B.08.00 (Agilent Technologies, USA). To support the metabolite identification, the MS chromatograms were determined by comparing the fragmentation patterns of metabolites and library searches in Mass Hunter, and Human Metabolome Database (HMDB). For sample preparation, pooled urine samples at 0–4 and 4–8 h were prepared using the same extraction process described in the pharmacokinetic study.

[2] = Cumulative urine excretion after single oral administration of A. paniculata extract; assay type: in vivo, human
Experimental: (§1) An aliquot of 50 µL of plasma or urine was placed in a 1.5 mL of polypropylene centrifuge micro-tube. Protein was removed from the sample by adding 200 µL of methanol (containing 50.00 ng/mL of IS). The mixture was vortexed for 10 min and was then centrifuged at 12,000 rpm, 4 °C for 10 min. The supernatant was filtered through a […] PVDF membrane (Chrom Tech) and transferred into a glass insert in a vial before LC‑MS/MS analysis.
(§2) The clinical pharmacokinetic study was designed as an open-labeled, with a single oral dosing, and conducted under a fasting condition. Four healthy subjects were recruited according to the following inclusion criteria: 18—55 years old with a body mass index (BMI) of 18–30 kg/m^2. Study participants were identified as healthy based on laboratory testing and physical examinations. The participants received 3 capsules containing A. paniculata extract (calculated as 60 mg of andrographolide/dose) before breakfast with 240 mL of drinking water. Blood samples, in EDTA tubes, were taken after oral administration at 0, 10, 20, 30, 45 min, and 1, 1.5, 2, 4, 6, 8, 10, 12, 24 h post dose. All blood samples were then centrifuged at 4000 ± 100 rpm, 4 °C for 5 min. Plasma was pipetted and stored in cryotubes at − 80 °C until further analysis. Urine samples were collected during 0–4, 4–8, 8–12, 12–24, 24–32, 32–40 and 40–48 h after dosing and were then kept at − 80 °C before sample extraction.
(§3) Finally, the hydrolysis of glucuronide metabolites in the pharmacokinetic study was performed according to the following process: 50 µL of plasma or urine sample was incubated for 30 min with 50 µL of 1000 U/mL β-glucuronidase in phosphate buffer pH 6.8 (composed of 0.1 M sodium phosphate monobasic and 0.1 M sodium phosphate dibasic) at 37 °C. For the hydrolysis of sulfatase, 50 µL of 100 units/mL of sulfatase in an acetate buffer at pH 5.0 (composed of 0.1 M acetic acid and 0.1 M sodium acetate) was added into 50 µL of sample; the mixture was then incubated at 37 °C for 2 h. The reaction was stopped in all hydrolysis samples with 150 µL of cold methanol, and then protein precipitation was performed prior to LC–MS/MS analysis. However, due to unavailable standard of the conjugated forms (AP-glucuronide and […]). The quantitative analysis of conjugated metabolites was determined after the hydrolysis reaction by enzymatic digestion, and the free form was analyzed without hydrolysis. The conjugated standards of AP-glucuronide or AP-sulfate should be synthesized for determining the exact amount of the glucuronide or sulfate.

[3] = Clinical pharmacokinetics in plasma after single oral administration of A. paniculata extract; assay type: in vivo, human; settings: for Cmax / AUC(0-t) / Vd/F / Tmax / half-life: human, parent compound in plasma, single oral dose of extract (60 mg andrographolide); for Cmax: healthy subjects n = 4; for Cmax / AUC(0-t) / Vd/F: mean ± SD; for AUC(0-t) / Vd/F / Tmax / half-life: n = 4; for Tmax / half-life: median; for AUC of both conjugated metabolites compared to the respective parent compounds: plasma, single oral dose of extract
Experimental: as §1, §2
Pharmacokinetic parameters were determined by non-compartmental analysis using PK solutions software, version 2.0 (Summit Research Services). The maximum concentration of four targeted compounds (Cmax) and the time to reach maximum concentration (Tmax) were taken directly from the individual plasma concentration versus time profiles. The area under the curve from time zero to the last sampling time (AUC0-t) was estimated using the linear trapezoidal rule. The apparent volume of distribution (Vd/F) and the elimination half-life (t1/2) were determined using non-compartmental analysis.
as §3

[4] = plasma
Experimental: (§4) The stability of plasma and urine samples were evaluated at three different QC concentration levels (LQC, MQC and HQC, n = 3 for each level); the conditions were freeze–thaw stability, long-term stability, short-term stability, and post preparative stability in an autosampler. The evaluation of stability under freeze–thaw condition was carried out over five cycles of − 80 °C for at least 12 h of each cycle. Long-term stability was analyzed after storing the samples at − 80 °C. Short-term stability of each analyte, for up to 8 h during processing on the bench at room temperature, was also evaluated. For evaluation of post-preparative stability, the extracted samples were stored at ambient temperature (4 °C) in an autosampler for 24 h. The analyte was considered as a stable sample when the average percentage of accuracy of the QC sample was in the range of 85–115% and the %CV was not over 15%.

[5] = Stability in urine under different storage conditions; assay type: physicochemical, human
Experimental: as §4

[6] = Freeze–thaw stability 5 cycles, 2.50 ng/mL (LQC)
[7] = Freeze–thaw stability 5 cycles, 500.00 ng/mL (MQC)
[8] = Freeze–thaw stability 5 cycles, 900.00 ng/mL (HQC)
[9] = Long term stability 3 months at − 80 °C, 2.50 ng/mL (LQC)
[10] = Long term stability 3 months at − 80 °C, 500.00 ng/mL (MQC)
[11] = Long term stability 3 months at − 80 °C, 900.00 ng/mL (HQC)
[12] = Post preparative stability 24 h at autosampler, 2.50 ng/mL (LQC)
[13] = Post preparative stability 24 h at autosampler, 500.00 ng/mL (MQC)
[14] = Post preparative stability 24 h at autosampler, 900.00 ng/mL (HQC)
[15] = Short term stability 8 h at room temperature, 2.50 ng/mL (LQC)
[16] = Short term stability 8 h at room temperature, 500.00 ng/mL (MQC)
[17] = Short term stability 8 h at room temperature, 900.00 ng/mL (HQC)

Compound: 14-Deoxy-11,12-didehydroandrographolide glucuronide [M2]
- Metabolic Pathway [1]: Glucuronidation

Compound: 14-Deoxyandrographolide glucuronide [M3]
- Metabolic Pathway [1]: Glucuronidation

Compound: Andrographolide glucuronide [M1]
- Metabolic Pathway [1]: Glucuronidation

Compound: Andrographolide sulfate [M4]
- Metabolic Pathway [1]: Sulfation*

- Route of excretion [2]: primarily excreted renally
- Cmax [3]: 60.9 ± 26.5 ng/mL
- AUC(0-t) [3]: 210 ± 21.1 ng·h/mL
- Vd/F [3]: 4.58 ± 3.28 L/kg
- Tmax [3]: 0.8 h
- half-life [3]: 1.27 h
- AUC of both conjugated metabolites compared to the respective parent compounds [3]: greater
- %Accuracy [4, 6]: 97.99%
- Measured concentration [4, 6]: 2.45 ± 0.06 ng/mL
- %Accuracy [4, 7]: 93.01%
- Measured concentration [4, 7]: 465.07 ± 25.39 ng/mL
- %Accuracy [4, 8]: 95.28%
- Measured concentration [4, 8]: 857.48 ± 19.46 ng/mL
- %Accuracy [4, 9]: 94.28%
- Measured concentration [4, 9]: 2.36 ± 0.06 ng/mL
- %Accuracy [4, 10]: 91.77%
- Measured concentration [4, 10]: 458.87 ± 8.67 ng/mL
- %Accuracy [4, 11]: 99.25%
- Measured concentration [4, 11]: 893.21 ± 22.77 ng/mL
- %Accuracy [4, 12]: 93.81%
- Measured concentration [4, 12]: 2.35 ± 0.18 ng/mL
- %Accuracy [4, 13]: 92.60%
- Measured concentration [4, 13]: 463.01 ± 10.97 ng/mL
- %Accuracy [4, 14]: 99.52%
- Measured concentration [4, 14]: 895.66 ± 31.23 ng/mL
- %Accuracy [4, 15]: 93.65%
- Measured concentration [4, 15]: 2.34 ± 0.15 ng/mL
- %Accuracy [4, 16]: 89.06%
- Measured concentration [4, 16]: 445.29 ± 9.56 ng/mL
- %Accuracy [4, 17]: 98.76%
- Measured concentration [4, 17]: 888.87 ± 23.16 ng/mL
- %Accuracy [5, 6]: 94.39%
- Measured concentration [5, 6]: 2.36 ± 0.20 ng/mL
- %Accuracy [5, 7]: 94.01%
- Measured concentration [5, 7]: 470.05 ± 32.15 ng/mL
- %Accuracy [5, 8]: 98.78%
- Measured concentration [5, 8]: 889.00 ± 36.63 ng/mL
- %Accuracy [5, 9]: 95.31%
- Measured concentration [5, 9]: 2.38 ± 0.16 ng/mL
- %Accuracy [5, 10]: 91.78%
- Measured concentration [5, 10]: 458.89 ± 20.53 ng/mL
- %Accuracy [5, 11]: 98.08%
- Measured concentration [5, 11]: 882.74 ± 14.22 ng/mL
- %Accuracy [5, 12]: 94.23%
- Measured concentration [5, 12]: 2.36 ± 0.18 ng/mL
- %Accuracy [5, 13]: 95.00%
- Measured concentration [5, 13]: 474.97 ± 23.30 ng/mL
- %Accuracy [5, 14]: 99.66%
- Measured concentration [5, 14]: 896.96 ± 17.62 ng/mL
- %Accuracy [5, 15]: 93.15%
- Measured concentration [5, 15]: 2.33 ± 0.06 ng/mL
- %Accuracy [5, 16]: 95.80%
- Measured concentration [5, 16]: 479.00 ± 32.64 ng/mL
- %Accuracy [5, 17]: 101.88%
- Measured concentration [5, 17]: 916.95 ± 32.00 ng/mL
Compound: C=C1CC[C@@H]2[C@](C)(CO)[C@H](O)CC[C@@]2(C)[C@@H]1C/C=C1/C(=O)OC[C@H]1O [AP1, andrographolide]

- Route of excretion [2]: primarily excreted renally
- Cmax [3]: 6.33 ± 1.18 ng/mL
- AUC(0-t) [3]: 10.2 ± 2.9 ng·h/mL
- Vd/F [3]: 1.93 ± 1.03 L/kg
- Tmax [3]: 1.5 h
- half-life [3]: 0.23 h
- AUC of both conjugated metabolites compared to the respective parent compounds [3]: greater
- %Accuracy [4, 6]: 96.87%
- Measured concentration [4, 6]: 2.42 ± 0.04 ng/mL
- %Accuracy [4, 7]: 94.79%
- Measured concentration [4, 7]: 473.93 ± 25.58 ng/mL
- %Accuracy [4, 8]: 98.93%
- Measured concentration [4, 8]: 890.41 ± 25.49 ng/mL
- %Accuracy [4, 9]: 88.89%
- Measured concentration [4, 9]: 2.22 ± 0.09 ng/mL
- %Accuracy [4, 10]: 92.43%
- Measured concentration [4, 10]: 462.16 ± 14.34 ng/mL
- %Accuracy [4, 11]: 98.92%
- Measured concentration [4, 11]: 890.25 ± 20.07 ng/mL
- %Accuracy [4, 12]: 100.85%
- Measured concentration [4, 12]: 2.52 ± 0.08 ng/mL
- %Accuracy [4, 13]: 96.39%
- Measured concentration [4, 13]: 481.96 ± 2.97 ng/mL
- %Accuracy [4, 14]: 101.27%
- Measured concentration [4, 14]: 911.38 ± 18.09 ng/mL
- %Accuracy [4, 15]: 101.65%
- Measured concentration [4, 15]: 2.54 ± 0.21 ng/mL
- %Accuracy [4, 16]: 90.47%
- Measured concentration [4, 16]: 452.37 ± 10.16 ng/mL
- %Accuracy [4, 17]: 100.71%
- Measured concentration [4, 17]: 906.41 ± 47.83 ng/mL
- %Accuracy [5, 6]: 95.48%
- Measured concentration [5, 6]: 2.39 ± 0.18 ng/mL
- %Accuracy [5, 7]: 94.03%
- Measured concentration [5, 7]: 470.16 ± 19.65 ng/mL
- %Accuracy [5, 8]: 102.77%
- Measured concentration [5, 8]: 924.91 ± 7.49 ng/mL
- %Accuracy [5, 9]: 93.89%
- Measured concentration [5, 9]: 2.35 ± 0.07 ng/mL
- %Accuracy [5, 10]: 90.88%
- Measured concentration [5, 10]: 454.38 ± 21.26 ng/mL
- %Accuracy [5, 11]: 99.27%
- Measured concentration [5, 11]: 893.39 ± 24.76 ng/mL
- %Accuracy [5, 12]: 96.20%
- Measured concentration [5, 12]: 2.41 ± 0.13 ng/mL
- %Accuracy [5, 13]: 93.94%
- Measured concentration [5, 13]: 469.68 ± 35.58 ng/mL
- %Accuracy [5, 14]: 101.31%
- Measured concentration [5, 14]: 911.80 ± 10.76 ng/mL
- %Accuracy [5, 15]: 95.56%
- Measured concentration [5, 15]: 2.39 ± 0.15 ng/mL
- %Accuracy [5, 16]: 91.90%
- Measured concentration [5, 16]: 459.52 ± 16.67 ng/mL
- %Accuracy [5, 17]: 102.42%
- Measured concentration [5, 17]: 921.74 ± 21.18 ng/mL
Compound: C=C1CC[C@@H]2[C@](C)(CO)[C@H](O)CC[C@@]2(C)[C@@H]1CCC1=CCOC1=O [AP6, 14-deoxyandrographolide]
